From patent publication US20210393570A1, “THERAPEUTICAL COMPOSITIONS FOR USE IN THE TREATMENT OF NON-MALIGNANT CONDITIONS ASSOCIATED WITH PHOSPHATIDYLINOSITOL-3-KINASE ACTIVATION: OVERGROWTH SPECTRUM, CUTANEOUS CAPILLARY MALFORMATIONS AND SEBORRHEIC KERATOSES” (UNIVERSITÉ DE BOURGOGNE, priority 2017, published 2021) come the findings set out here.

Data set [1] relates to fibroblasts from patients. Kind of data set: Cell viability measured by XTT labeling. The class given is cell-based, human. To be noted: 48 h treatment, increasing doses; compared with PI3K or mTOR inhibitors; FIG. 3A, 3B. The method, then: (§1) FIG. 3 Cell viability measured by XTT labeling after 48 h of treatment by 10 μM LY294002 or by increasing doses of Triptolide (A), by 4 ng/ml Rapamycin (B) or increasing doses of Kribb11. For each experiment: control 1 (white bar), control 2 (hatched bar), patient B (grey bar), patient A (black bar). n=3. O.D.=optical density. (C) Number of cells after 48 h treatment for patient A. (D) Cell proliferation measured by incorporation of BrdU. O.D.=optical density. (E) Fibroblasts apoptosis of patients and healthy donors measured by a cell death detection ELISA kit, after 24 h treatment with 100 ng/ml rapamycin, 10 μM LY294002, 3 μM Kribb11 or 10 nM Triptolide. 1 μM of staurosporine was used as an inducer of apoptosis and as positive control of the experiment, n=3. O.D.=optical density. *p<0.05, **p<0.01, ***p<0.005.

Data set [2] has as its system patient A fibroblasts. The data set can be described thus: Number of cells after 48 h treatment. The class given is cell-based, human. Particulars: compared with PI3K or mTOR inhibitors, FIG. 3C. As for the experimental part:
as §1

Data set [3] has as its system fibroblasts of patients and healthy donors. The data set can be described thus: Fibroblast apoptosis measured by cell death detection ELISA kit. The format is cell-based. To be noted: 24 h treatment; 3 μM Kribb11 or 10 nM Triptolide; FIG. 3E. As for the experimental part:
as §1

Data set [4] has as its system fibroblasts from patients. The data set can be described thus: Cell proliferation measured by incorporation of BrdU. The class given is cell-based, human. To be noted: FIG. 3D. As for the experimental part: as §1
Data set [5] relates to patient A fibroblasts. Kind of data set: Quantitative PCR of 74 genes known to be regulated by HSF1. The class given is cell-based, human. Particulars: two independent experiments, FIG. 2D. From the text: (D) Quantitative PCR analysis of the expression of 74 genes belonging to a cancer-related gene signature in patient A fibroblasts after treatment with LY294002. A code with different patterns is used to illustrate the intensity of the increase (gradient of grey) or decrease (shading pattern) of gene expression compared to untreated cells;
The Inventors have further investigated whether the PI3K/AKT/mTOR pathway is directly responsible for the activation of HSF1 in the fibroblasts of patients. The induction of PI3K/AKT activating pathway by adding insulin to normal fibroblasts is well known. […] To test this hypothesis, the expression of 74 known genes to be regulated by HSF1 have been determined after treatment with the PI3K inhibitor (FIG. 2D). In two independent experiments, the expression of 47 genes is inhibited while the expression of 11 genes is increased. The results are variable for 12 other genes (increase and decrease). […] Thus, a large part of a HSF1-dependent gene signature can be inhibited by the blocking of PI3K and thus confirms the link between these two pathways in the syndrome of segmental hypertrophy PIK3CA dependent.

In data set [6] the test system is HSF1. The data set can be described thus: Immunoblotting of HSF1 phosphorylation in fibroblasts. The format is cell-based, human. Particulars: insulin added to normal fibroblasts; FIG. 2A. (In general: Immunoblotting shows a protein as a band on a membrane.)
Data set [7] deals with AKT. Kind of data set: Immunoblotting of AKT phosphorylation in fibroblasts. The format is cell-based, human. To be noted: treatment with insulin; FIG. 2A.

In the case of `CC(C)[C@]12O[C@H]1[C@@H]1O[C@]13[C@]1(O[C@H]1C[C@H]1C4=C(CC[C@@]13C)C(=O)OC4)[C@@H]2O` [Triptolide], in data set [1], the “cell growth (cell viability, XTT)” value is “reduction in cell growth”. Further, in data set [2], the “number of total cells” value is on record as “reduction”. Besides, in data set [3], the “cell mortality (apoptosis)” value is given as “not associated with an increase in cell mortality”.
As to `CNc1ccc([N+](=O)[O-])c(Nc2ccc3[nH]ncc3c2)n1` [Kribb11], the “cell growth (cell viability, XTT)” value in data set [1] was “reduction in cell growth”. Also, in data set [2], the “number of total cells” value is “reduction”. Besides, the “increase in the % of cells entering the S phase” value in data set [4] is “completely blocked”.
As to `O=c1cc(N2CCOCC2)oc2c(-c3ccccc3)cccc12` [LY294002], in data set [5], the “number of HSF1-regulated genes whose expression is increased” value is 11 genes; the “number of HSF1-regulated genes whose expression is inhibited” value is 47 genes; the “number of HSF1-regulated genes with variable results (increase and decrease)” value was found to be 12 genes.
As to insulin, the “phosphorylation of HSF1” value in data set [6] was “induction of the phosphorylation of HSF1”. In data set [7], the “phosphorylation of AKT” value is listed as “induces the phosphorylation of AKT”.
